Test results: US20060058346A1, “Novel enantiomers of etrahydroisoquinoline derivatives and theirpharmaceutically acceptable salts, their preparations and pharmaceutical compositions” (priority 2002, published 2006)
Where two headings read alike, the source gives them in different places.

Tests used:
[1] = Acute toxicity in rat (LD50); type: in vivo; conditions: Sprague-Dawley, in vivo
Procedure: Sprague-Dawley rats (six weeks) were used as test sample. Each group was comprised of two rats. […] The said emulsion was administered to two rats one times using intravenous injection and intraperitoneal injection.

left auricle muscle = assay: Contractile force of left auricle muscle excised from rats; set-up: species or system rat; conditions: for Contractile Force of Auricle Muscles: vehicle control:100%
Procedure: Immediately after Sprague-Dawley rats (female or male) were anaesthetized with pentobarbital sodium (50 mg/kg, i.m.), the thorax was opened to excise the heart. The heart was submerged in Krebs solution, and left auricle muscle and right auricle muscle were then isolated. The left auricle muscle was placed in an organ bath for recording of contractile force, and applied with electrical field stimulation (voltage 10% higher than threshold voltage, 1 Hz frequency, 5 ms duration). In the case of right auricle muscle, which contracts spontaneously, the number of continuous beats was recorded. In this experiment, to measure contractile fore of the two auricle muscles, the organ bath was warmed to 37° C., and as a physiological solution, Krebs solution (119.8 mM NaCl, 4.6 mM KCl, 2.5 mM CaCl2, 1.2 mM MgCl2, 25 mM NaHCO3, 1.2 mM KH2PO4, 10 mM glucose, 1 mM EDTA, pH 7.4) was used. The Krebs solution (pH 7.4) was continuously saturated with a gas mixture of 95% O2 and 5% CO2. The auricle muscle was under a tension of 1 g, and Krebs solution was exchanged with fresh solution at intervals of 20 minutes while equilibrium was maintained during a recording period of 60 minutes.

[2] = test system: RAW 264.7 macrophage cells; assay: Nitric oxide production in macrophage cell stimulated by LPS (Griess); type: cell-based; conditions: for inhibition of production of NO: LPS-stimulated macrophage cell; for NO production by LPS in macrophage cell: LPS 1 μg/ml
Procedure: RAW 264.7 macrophage cells were plated on 100 mm culture dishes at a density of 1-2×10^5 cells. Thereafter, the said macrophage cell was incubated in DMEM medium containing 10% fetal calf serum (heat-inactivated), 100 U/ml penicillin, and […] streptomycin in a CO2 incubator. The said macrophage cell was incubated therein confluently. The said incubated macrophage cells were transferred to serum-free DMEM medium, and further incubated therein for about 24 hours. Thereafter, macrophage cells were stimulated with LPS (1 μg/ml) for about 8 hours. (In this progress, experimental group was divided into two groups, group to which the compound was administered, and group to which the compound was not.) Then, nitrite quantification was achieved by performing calorimetric reaction for produced nitrite with Griess reagent and then measuring absorbance at 550 nm, while using NaNO2 as a standard.

[3] = test system: rat with DIC and MOF induced by endotoxin; assay: Endotoxin-induced DIC and multiple organ failure in rat; type: in vivo; conditions: for platelet concentration compared with LPS only: FIG. 2
Procedure: Rats (Crj:CD(SD); 250±20 g) were used to test sample. Before the compound was administered, the rat was not fed. The compound was orally administered one time per day for two days in an amount of 10 mg˜25 mg/10 ml/kg/day. Distilled water (control group and LPS group) or enantiomer was administered to the rat repeatedly. After one hour, rat was anaesthetized with intramuscular injection of 50 mg/kg of pentobarbital. […] Thereafter, 50 mg/kg of pentobarbital was injected at 2 hour to the rat by intramuscular injection. Therefore, the rat was anaesthetized for all the experiment and operation.
The blood (2 ml for FDP and 6 ml for other variables) was collected from abdominal artery using a plastic syringe, into glass tube containing soy bean trypsin inhibitor and Bothrops atrox venom to measure FDP and into plastic tube containing 2.2% sodium citrate (1/10, volume/volume). The aggregated blood was centrifuged at 1200×g for 5 minutes two times. Before measurement of FDP, the supernatant was stored at freezer for at least 12 hours. Citrated blood was centrifuged at 2000×g for 30 minutes. The supernatant was used for measurement of fibrinogen and PT or APTT time. The aggregated blood collected in glass tube was disposed at the room temperature for 30 min, centrifuged to give the serum for measurement of AST and BUN.
Platelet from total citrated blood was counted by using automatic platelet counter (PLT-4, Texas International Lab.) PT or APTT time was measured by Beckton Dickenson BBL Fibrosystem (Coctkeysville, USA). FDP analysis was accomplished by using Thrombo-wellcotest kit. The said analysis was accomplished by up and down dilution method semi-quantitatively. Measurement of AST and BUN was accomplished by using Autobiochemical analyzer (Hitach 747, Japan).

rat PRP = assay: Inhibition of platelet aggregation in rat PRP; type: cell-based; conditions: for IC50: Platelet, rat PRP
Procedure: Male rat (weighing 200±20 g) was anaesthetized with ether. The blood (nine volumes) was collected from heart using a plastic syringe containing 2.2% sodium citrate (one volume). The collected blood was centrifuged at 200×g for 10 minutes to give supernatant platelet-rich plasma (PRP). The residue was centrifuged again at 700×g for 30 minutes, giving platelet-poor plasma (PPP) for experiment. We used a platelet analyzer to count the number of platelet of the PRP. PRP was diluted with physiological saline solution to prepare solution containing platelets in an amount of 400-450×10^6/ml. The inhibitory effects of the compound represented by formulas 3 to 8 was evaluated by platelet aggregation analyzer, and the inhibitory effect of each compound is given as % below. That is, after PRP was incubated for 3 minutes at 37° C., the compounds or a carrier was added thereto, and after 1 min, platelet aggregation-inducing agent such as ADP, collagen, arachidonic acid (AA), U46619 or epinephrine was added thereto, followed by investigation of turbidity caused by aggregation of platelets. % Inhibition=A−B/A×100 [arithmetic formula 1] • (A: Platelet aggregation rate in group treated with an aggregation-inducing agent; • B: Platelet aggregation rate in group treated with both an aggregation-inducing agent and the enantiomers simultaneously)

LPS-injected rat = assay: Survival in LPS-injected rat; type: in vivo
Procedure: Rats (25˜30 g, ICR), originated from NIH cancer institute (Bethesda, Md., USA) were purchased from Korea Test Animal Corp. (Unsung, Korea). 20 mg/kg of LPS was injected to abdominal cavity of the rat. Thereafter, survival was observed every 24 hours for seven days, to investigate effect of enantiomer on the survival in LPS-injected rat. The compound represented by formula 3 to 8 was administered 30 min before the LPS injection.

[4] = ip, single intraperitoneal injection, read-out: LD50, Intraperitioneal injection
[5] = single intravenous injection, read-out: LD50, Intravenous injection
[6] = ADP 2 − 5 × 10^−6 M, read-out: IC50 platelet aggregation, ADP
[7] = U46619 1.5 × 10^−6 M with threshold collagen, read-out: IC50 platelet aggregation, U46619
[8] = arachidonic acid 1 − 4 × 10^−5 M with threshold collagen, read-out: IC50 platelet aggregation, AA
[9] = collagen 2 − 5 × 10^−6 g/ml, read-out: IC50 platelet aggregation, collagen
[10] = epinephrine 1 − 4 × 10^−6 M with threshold collagen, read-out: IC50 platelet aggregation, Epinephrine
[11] = 15 mg/kg compound 30 min before LPS 20 mg/kg i.p.
[12] = 30 mg/kg compound 30 min before LPS 20 mg/kg i.p.

In the case of `Oc1cc2c(cc1O)[C@@H](Cc1cccc3ccccc13)NCC2` [Formula 6, (R)-6,7-Dihydroxy-1-(α-naphthylmethyl)-1,2,3,4-tetrahydroisoquinoline], the LD50 [1, 4] is reported as 230 mg/kg, the LD50 [1, 5] is reported as 88 mg/kg and the “effect on contractile force of auricle muscles” value (“effect on contractile force” below) (left auricle muscle) is reported as “no effect”. For the same molecule, the “Contractile Force of Auricle Muscles” value (left auricle muscle; 1 × 10^−4 M) was 50%, the “Contractile Force of Auricle Muscles” value (left auricle muscle; 1 × 10^−5 M) was 50% and the “Contractile Force of Auricle Muscles” value (left auricle muscle; 1 × 10^−6 M) was 75%. The “Contractile Force of Auricle Muscles” value (left auricle muscle; 1 × 10^−7 M) was 100%, the “Contractile Force of Auricle Muscles” value (left auricle muscle; 3 × 10^−5 M) was 50% and the “Contractile Force of Auricle Muscles” value (left auricle muscle; 3 × 10^−6 M) was 50%. The “Contractile Force of Auricle Muscles” value (left auricle muscle; 3 × 10^−7 M) was 87%, the “inhibition of production of NO” value [2] was “never or slightly inhibited production of NO” and the “NO production by LPS in macrophage cell” value ([2]; compound 10 μM) was 36 µM. The “NO production by LPS in macrophage cell” value ([2]; compound 50 μM) was 34 µM, the “NO production by LPS in macrophage cell” value ([2]; compound 100 μM) was 38 µM and the “serum level of AST” value ([3]; LPS 15 mg/kg i.v. 4 hours) was “at the normal level”. It also gave an IC50 (rat PRP; [6]) of 540 µM, an IC50 (rat PRP; [7]) of 20 µM and an IC50 (rat PRP; [8]) of 11 µM. For the same molecule, the IC50 (rat PRP; [9]) was 140 µM, the IC50 (rat PRP; [10]) was 2.4 µM and the “survival after six days” value (LPS-injected rat; [11]) was 73%. For the same molecule, the “survival after six days” value (LPS-injected rat; [12]) was 93%.

For `Oc1cc2c(cc1O)[C@H](Cc1ccc3ccccc3c1)NCC2` [Formula 7, (S)-6,7-Dihydroxy-1-(β-naphthylmethyl)-1,2,3,4-tetrahydroisoquinoline], the LD50 [1, 4] was 376 mg/kg, the LD50 [1, 5] was 184 mg/kg and the “effect on contractile force” value (left auricle muscle) was “strongly increased”. The “Contractile Force of Auricle Muscles” value (left auricle muscle; 1 × 10^−4 M) was 380%, the “Contractile Force of Auricle Muscles” value (left auricle muscle; 1 × 10^−5 M) was 350% and the “Contractile Force of Auricle Muscles” value (left auricle muscle; 1 × 10^−6 M) was 250%. For the same molecule, the “Contractile Force of Auricle Muscles” value (left auricle muscle; 1 × 10^−7 M) was 120%, the “Contractile Force of Auricle Muscles” value (left auricle muscle; 3 × 10^−5 M) was 380% and the “Contractile Force of Auricle Muscles” value (left auricle muscle; 3 × 10^−6 M) was 315%. The “Contractile Force of Auricle Muscles” value (left auricle muscle; 3 × 10^−7 M) was 170%, the “inhibition of production of NO” value [2] was “strongly inhibited production of NO” and the “NO production by LPS in macrophage cell” value ([2]; compound 10 μM) was 31.2 µM. The “NO production by LPS in macrophage cell” value ([2]; compound 50 μM) was 15.2 µM, the “NO production by LPS in macrophage cell” value ([2]; compound 100 μM) was 9.4 µM and the “serum level of FDP compared with R-configuration” value ([3]; 10 mg/kg, FIG. 4) was “lower”. The “platelet concentration compared with LPS only” value [3] was “higher”, the IC50 (rat PRP; [6]) was 460 µM and the IC50 (rat PRP; [7]) was 61 µM. The IC50 (rat PRP; [8]) was 62 µM, the IC50 (rat PRP; [9]) was 150 µM and the IC50 (rat PRP; [10]) was 0.9 µM. For the same molecule, the “inhibitory effect on epinephrine-induced platelet aggregation, times as strong as R-enantiomer” value (rat PRP; epinephrine, S versus R) was “about seventeen times as strong”, the “inhibitory effect on epinephrine-induced platelet aggregation, times as strong as racemic mixture” value (rat PRP; epinephrine, S versus racemic mixture) was “about five times as strong” and the “survival after six days” value (LPS-injected rat; [11]) was 73%. For the same molecule, the “decrease of survival at 30 mg/kg versus 15 mg/kg” value (LPS-injected rat; LPS 20 mg/kg) was 7%.

With `Oc1cc2c(cc1O)[C@@H](Cc1ccc3ccccc3c1)NCC2` [Formula 8, (R)-6,7-Dihydroxy-1-(β-naphthylmethyl)-1,2,3,4-tetrahydroisoquinoline] the LD50 [1, 4] was 214 mg/kg, the LD50 [1, 5] was 80 mg/kg and the “effect on contractile force” value (left auricle muscle) was “no effect”. For the same molecule, the “Contractile Force of Auricle Muscles” value (left auricle muscle; 1 × 10^−4 M) was 105%, the “Contractile Force of Auricle Muscles” value (left auricle muscle; 1 × 10^−5 M) was 100% and the “Contractile Force of Auricle Muscles” value (left auricle muscle; 1 × 10^−6 M) was 100%. The “Contractile Force of Auricle Muscles” value (left auricle muscle; 1 × 10^−7 M) was 100%, the “Contractile Force of Auricle Muscles” value (left auricle muscle; 3 × 10^−5 M) was 105% and the “Contractile Force of Auricle Muscles” value (left auricle muscle; 3 × 10^−6 M) was 100%. For the same molecule, the “Contractile Force of Auricle Muscles” value (left auricle muscle; 3 × 10^−7 M) was 100%, the “inhibition of production of NO” value [2] was “never or slightly inhibited production of NO” and the “NO production by LPS in macrophage cell” value ([2]; compound 10 μM) was 46 µM. For the same molecule, the “NO production by LPS in macrophage cell” value ([2]; compound 50 μM) was 42 µM, the “NO production by LPS in macrophage cell” value ([2]; compound 100 μM) was 40 µM and the “platelet concentration compared with LPS only” value [3] was “higher”. It also gave an IC50 (rat PRP; [6]) of 540 µM, an IC50 (rat PRP; [7]) of 49 µM and an IC50 (rat PRP; [8]) of 7.9 µM. For the same molecule, the IC50 (rat PRP; [9]) was 150 µM, the IC50 (rat PRP; [10]) was 15 µM and the “survival after six days” value (LPS-injected rat; [12]) was 72%.
